Laboratory results published in patent publication US9504702B2, “Methods of inhibition of protein fucosylation in vivo using fucose analogs” (Seattle Genetics, Inc., priority 2010, dated 2016).

Legend:
[1] = test system: antibody core fucosylation (antibodies that did not bind to KLH, recovered from protein A column); assay: In vivo antibody fucosylation after ip dosing (Example 1, Study 1), AOL lectin dot blot; conditions: 150 mg/kg ip daily for 7 days; for fucosylation levels of the antibodies reduced, as compared to the untreated controls: non-KLH antibodies from protein A column, dot blot, on average
Procedure: Female BALB/c mice were immunized with Keyhole Limpet Hemocyanin (KLH) 30-60 days prior to starting this study. For the first study, mice were dosed ip with 150 mg/kg of alkynyl fucose (SGD-1887), alkynyl fucose peracetate (SGD-1890), 2-fluorofucose (SGD-2083), or 2-fluorofucose triacetate (SGD-2084) daily for 7 days or were untreated. On day 2, mice were also boosted with KLH. On the day after the last ip dose, mice were terminally bled and serum obtained. For the second study, mice were given 100 mM of 2-fluorofucose (SGD-2083) in their drinking water or given untreated water for 7 days, boosted with KLH, and continued with 100 mM 2-fluorofucose containing drinking water or untreated water for 7 more days before being terminally bled. Serum was then obtained. No mice died in either study. For both studies, serum was passed over a commercial anti-KLH affinity column to obtain KLH-specific polyclonal antibodies. The flow through from the anti-KLH affinity column was passed over a commercial protein A column to obtain the remaining antibodies.
Dot blots: 0.5 μg each of antibodies from untreated and treated animals, as well as standards of antibody cAC10 having known amounts of core fucosylation (0 to 100% fucose), were blotted onto a nitrocellulose membrane. The proteins levels were visualized by Ponceau staining. The blot was probed with biotinylated Aspergillus oryzae L-fucose-specific lectin (AOL) (which binds to fucosylated antibodies) and developed with streptavidin HRP and ECL. Gel loading (visible) and fucose signals (bioluminescence) were measured with an Alpha Innotech camera and quantitated with the machine software.

[2] = test system: LP-1, a human multiple myeloma cell line (IgG fucosylation); assay: Fucosylation of LP-1-generated IgG, AOL dot blot; assay type: cell-based
How it was run: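 LP-1 cells (250,000 cells/mL) treated with 100 μM of each analog for 5 days at 37° C in IgG-depleted RPMI/10% FBS. Secreted IgG purified on protein A, ~0.5 μg dot-blotted (Ponceau S loading check) and probed with 5 μg/ml biotinylated AOL, detected with streptavidin-HRP.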

[3] = test system: LP-1 cells (IgG heavy chain fucose signal); assay: Fucosylation of LP-1 IgG, SDS-PAGE/Western blot with biotinylated AOL; assay type: cell-based, human; conditions: for AOL signal on IgG heavy chain, SDS-PAGE/Western blot: 50 μM, LP-1 cells, versus untreated cells; for inhibition of fucosylation of antibody (AOL signal): IgG isolated from LP-1 culture
Description: The ability of different fucose analogs to inhibit the fucosylation of IgG antibodies produced by human myeloma cells as well as the fucosylation of surface proteins of human cancer cell lines was investigated. In a first study, the ability of fucose analogs to inhibit fucosylation of IgG produced by the cell line LP-1, a human multiple myeloma cell line, was investigated. The antibodies produced by, and found in the culture medium of, untreated LP-1 cells were confirmed to be of the IgG type by western blot using anti-human IgG detection (data not shown). This was accomplished by growing 20 mL of LP-1 cells in a T-75 culture flask (250,000 cells/mL) for 5 days at 37° C. in a humidified atmosphere of 5% CO2 in IgG-depleted tissue culture media (90% RPMI with 10% IgG-depleted heat inactivated FBS). Harvest of the cells was by centrifugation (200×g, 4° C., 5 min), and the culture medium was collected. The medium was filtered through a 0.22 μm filter and then incubated with 1 mL of a 50% MabSelect™ protein A resin slurry in PBS at 4° C. with rotation overnight to capture the IgG. The resin slurry was allowed to settle and most of the medium was removed. The resin slurry was transferred with ˜0.5 mL media to two cellulose acetate filter spin cups and was centrifuged at 5000×g for 1 min. The resin bed was then washed 3 times with 0.5 mL PBS. The IgG was eluted with 700 μL of Pierce IgG elution buffer (into with 52 μL of 9 M Tris buffer, pH 9.5 to adjust the pH after elution). The resulting elution was transferred to a 10,000 MW cutoff centrifugal concentrator and the sample was concentrated to approximately 20 μL. 1 μL of the concentrated sample was loaded on an SDS polyacrylamide gel for separation followed by blotting onto nitrocellulose membrane. Staining of the blot for total protein was with Ponceau S and for identification of isotype with anti-human IgG antibody.
Antibody fucosylation can also be determined using a biotin-labeled Aspergillus oryzae L-fucose-specific lectin (AOL), which binds specifically to the α-1,6-linked fucose of the antibody. This method for fucose detection works for both blotted protein that has either been separated by SDS-PAGE or for protein that has been applied to nitrocellulose without separation. The […] signal generated using the AOL-biotin conjugate with streptavidin-HRP binding and ECL detection can be quantitated using an Alpha Innotech FlourChem® Q system.
The three analogs chosen were used at a concentration of 50 μM. These analyses compared the activity of 2-fluorofucose (SGD-2083), 2-fluorofucose peracetate (SGD-2084), and alkynyl fucose peracetate (SGD-1890) with antibody from untreated cells.

C#CC(OC(C)=O)[C@@H](OC(C)=O)[C@@H](OC(C)=O)[C@@H](C=O)OC(C)=O (stereo partly shown) [SGD-1890, 5-ethynylarabinose tetraacetate]
mortality [1]: No mice died
fucosylation levels of the antibodies reduced, as compared to the untreated controls [1]: about one third
inhibition of IgG fucosylation in human cells (decrease in AOL signal, dot blot) ([2]; 100 μM, LP-1 cells): potentially strong inhibitors
dot blot results (% fucose signal of control) ([2]; LP-1-generated IgG, 100 μM): ~1 % fucose signal of control
AOL signal on IgG heavy chain, SDS-PAGE/Western blot [3]: did not show reactivity with the biotinylated AOL
inhibition of fucosylation of antibody (AOL signal) [3]: did

C[C@H](O)[C@@H](O)[C@@H](O)[C@H](F)C=O [SGD-2083, 2-fluoro-2-deoxy fucose]
fucosylation levels of the antibodies reduced, as compared to the untreated controls [1]: about one third
activity at 100 µM ([2]; Homo sapiens, LP-1, 120 h, 5 days, LP-1 cells, AOL dot blot, multiple samples separated by semicolon, read-out: % of control fucosylated IgG value): 66%
AOL signal on IgG heavy chain, SDS-PAGE/Western blot [3]: no apparent change in the AOL signal
inhibition of fucosylation of antibody (AOL signal) [3]: did not inhibit fucosylation of antibody
